Experimental findings from patent publication US5843916A, “Cyclic amp analogues, individually and in pairs, to inhibit neoplastic cell growth” (priority 1994, dated 1998) are described below.

SMILES strings stand for the structures. Entries after “also recorded” stand apart in the source; their conditions may differ. Like-named read-outs stand apart in the source and are kept apart here.

Test [1] relates to RI and RII cAMP receptor proteins, LS-174T. The experiment in a line: Photoaffinity labelling of cAMP receptor proteins (Table 10, FIG. 6). The conditions noted are these: 3 days, 8-Cl and N^6-benzyl 10 μM, dibutyryl 1 mM; for relative level of RI / relative level of RII: control RI = 1.0 O.D. The test is classed as cell-based, human. Here is the method: (§1) Photoactivated incorporation of 8-N3 [^32 P] was performed as described below.
(§2) M is marker proteins of known molecular weight.
(§3) Each lane contained 50 micrograms protein for SDS-PAGE.
(§4) The incubations were carried out at 23° C. for 60 minutes in 96-well immunoplates. The reaction mixtures were then irradiated for 30 seconds at 254 nm, placing a Mineralite UVS-11 hand lamp directly onto the plate. The samples were mixed with 25 microliters of 3× sample buffer (3% SDS, 15% beta-mercaptoethanol, 30 mM Tris, 30% glycerol, 1% bromophenol blue saturated solution), boiled for 3 minutes, and centrifuged at 700 × g for five minutes. The samples containing 10-30 micrograms of protein were subjected to 0.05% SDS-12% PAGE. The gels were fixed, dried, and exposed to X-ray films overnight. The protein concentrations were determined by the method of Lowry et al., J. Biol. Chem. 193: 265-275, 1951, with bovine serum albumin as standard.
(§5) The levels of the receptor proteins are expressed relative to the RI level in the untreated control cells of MDA-MB-231 and LS-174T which are each set equal to 1.0 O.D.; the scale was expanded to differentiate the lower intensity bands.

Test [2] relates to RI and RII cAMP receptor proteins, MDA-MB-231. The description is as above. Format: cell-based, human. The following applies: 3 days, 8-Cl and N^6-benzyl 10 μM, dibutyryl 1 mM; for relative level of RI / relative level of RII: control RI = 1.0 O.D. The protocol: as §1, §2, §3, §4, §5
In test [3] the test system is p21 ras protein, MCF-7 cells. In words: Western blotting of p21 ras protein (Table 11, FIG. 7). The test is classed as cell-based, human. The following applies: for p21 (Relative Level): 3 days, 8-Cl-cAMP 10 μM, 8-Cl-adenosine 5 μM, DBcAMP 500 μM, control = 1.0 O.D.; for p21 level: three days. Here is the method: Western blotting of p21 protein was performed as described below. […] V is cell lysate from Ha-MuSV-transformed NIH3T3 clone 13-3B-4. M, marker proteins of known molecular weight.
Each lane contained 100 micrograms of protein for SDS-PAGE.
Cellular proteins present in cell extracts were separated by 12% SDS-PAGE and transferred to nitrocellulose sheets in transfer buffer (25 mM Tris, 192 mM glycine, 20% methanol, pH 7.4). Nitrocellulose sheets were washed and first incubated with 3% bovine serum albumin in NTE-NP40 (50 mM Tris-HCl, pH 7.5, 150 mM NaCl, 2 mM EDTA, 0.1% Nonidet P-40) for three hours at 37° C. and then sequentially incubated with medium containing p21 monoclonal antiserum Y13-259 directed against the Ha-MuSV-encoded p21 for sixteen hours at 4° C., rabbit anti-rat IgG for 2.5 hours in an ice water bath, and 5×10^5 cpm/ml ^125 I-protein A for one hour in an ice water bath. The nitrocellulose sheets were air dried and exposed to Kodak XAR film for 12-36 hours at -20° C. Comparison of the resulting autoradiograms with others in which normal rat serum was substituted for p21 monoclonal antibody permitted identification of p21. To provide a reference p21, cell lysates were prepared from NIH 3T3 clone 13-3B-4 that had been transfected with HaMuSV DNA.
The levels of p21 protein are expressed relative to the p21 level in the untreated control cells which is set equal to 1.0 O.D.

Test [4] deals with DMBA-induced mammary carcinomas. The experiment in a line: Growth of DMBA-induced mammary carcinomas, pellet (Table 4). Format: in vivo, rat. The conditions noted are these: for tumor growth: 10 mg pellet for 8-Cl-cAMP, implanted twice every two weeks. Here is the method: Treated tumors regress almost 100% within 30 days.
^b 8Cl-cAMP (20 mg pellet per rat, consisting of 10 mg 8Cl-cAMP and […]
mg cholesterol), was implanted on day 0 and day 14.

In a further test the test system is NMU-2 mammary carcinoma. The experiment in a line: Growth of metastatic mammary carcinoma, pellet (Table 5). The following applies: for Change in mean tumor volume (cm^3) / Change in mean tumor volume (%): pellet with 10 mg analogue, day 7; for Change in mean tumor volume (%): none = 100. Format: in vivo, rat. Here is the method: Based on the findings with the […] leukemia model, the efficacy of the 8-Cl-cAMP-Na+infusions were evaluated in advanced-stage human tumor xenograft models. Tumor fragments of approximately 14 mg were implanted subcutaneously in athymic CD-1 female mice and seven day intraperitoneal infusions of the cyclic nucleotide were initiated three weeks later when mean tumor weights had reached 300-400 mg. Tumor measurements were recorded on the initial day of treatment (staging day) and one day after treatment was completed (staging day +7), and were used to calculate changes in tumor weights.
NMU2, a variant of primary hormoneresponsive NMU tumor,
hormoneindependent, transplantable, and metastatic.
8Cl-cAMP and DBcAMP were given as a 20mg pellet consisting of 10 mg of […]

The test system of another test is HL-60. The experiment in a line: Growth inhibition of leukemic cells (Table 12). The test is classed as cell-based. The following applies: Homo sapiens.
A further test relates to Molt-4. In words: Growth inhibition of leukemic cells (Table 12). Format: cell-based, human. The conditions noted are these: for IC50: Homo sapiens, MOLT-4.
The subject of a further test is K-562. The experiment in a line: Growth inhibition of leukemic cells (Table 12). The test is classed as cell-based. The following applies: Homo sapiens, K562.
In the next test the test system is myc-K562. In words: Growth inhibition of leukemic cells (Table 12). Format: cell-based. The following applies: Homo sapiens.
Test [5] relates to RI cAMP receptor protein, Molt-4 leukemic cells. The experiment in a line: Photoaffinity labelling of RI cAMP receptor protein (FIG. 9A). Format: cell-based, human. The conditions noted are these: three days; 8-Cl-cAMP 5 μM, DBcAMP 1 mM, 8-Cl-adenosine 5 μM.
For test [6], the system named is c-myc protein, Molt-4 leukemic cells. The experiment in a line: Western blotting of c-myc protein (FIG. 9B). The test is classed as cell-based, human. The conditions noted are these: three days; 8-Cl-cAMP 5 μM, DBcAMP 1 mM, 8-Cl-adenosine 5 μM. Here is the method:
The cells were grown in suspension culture in RPMI 1640 medium supplemented with 10% fetal bovine serum, penicillin (50 U/ml), streptomycin (500 μg/mL), 10 mM HEPES buffer, and extra glutamine. […] Surface antigen analysis of HL-60 cells was performed by flow cytometry using a panel of monoclonal antibodies reactive with either myeloid cells or monocytic cells. Terminal deoxynucleotidyl transferase (TdT) was assayed by an immunoperoxidase method using a TdT fluorescence kit. Western blotting of c-myc protein was performed using c-myc antibody 15206D11 (Scripps Clinic and Research Foundation, LaJolla, Calif.).
M, marker proteins of known molecular weight. […] The resulting supernatants were used as cell lysates. […] ND=nondetectable.

For test [7], the system named is RI and RII cAMP receptor proteins, breast (MDA-MB-231) and colon (LS-174T) cancer cells. The experiment in a line: cAMP receptor protein levels, breast and colon cancer cells (FIG. 6). The test is classed as cell-based, human. The following applies: for RI and RII receptor levels: three days, FIG. 6. Here is the method: as §1, §2
The incubations were carried out at 23° C. for 60 minutes in 96-well immunoplates. […] The gels were fixed, dried, and exposed to X-ray films overnight.

In test [8] the test system is four leukemic cell lines (HL-60, K-562, myc-K562, Molt-4). The experiment in a line: Growth inhibition of leukemic cell lines. The test is classed as cell-based, human. The following applies: Homo sapiens; leukemic cell lines, range.

Regarding `Nc1ncnc2c1nc(Cl)n2[C@@H]1O[C@@H]2COP(=O)(O)O[C@H]2[C@H]1O` [8-Cl-cAMP, 8-chloro-adenosine 3': 5'-monophosphate], in [1], the RII/RI worked out at 1.25, the “relative level of RI” value came out at 0.20 ± 0.02 and the “relative level of RII” value is listed as 0.25 ± 0.02. In [2], the RII/RI came out at 0.60, the “relative level of RI” value came to 0.25 ± 0.03 and the “relative level of RII” value worked out at 0.15 ± 0.01. In test [3], the “p21 (Relative Level)” value worked out at 0.1 ± 0.01 and the “p21 level” value is “markedly decreased level of p21”. The “tumor growth” value in test [4] is recorded as “completely stopped tumor growth”. Besides, the tumor regression in test [4] (10 mg pellet, within 30 days) is about 100%. Besides, in test [4] (pellet day 0 and day 14, day 30, mean ± S.E.), the “Mean % of change in tumor volume” value was -96 ± 20%. Also, in the test with NMU-2 mammary carcinoma, the “Change in mean tumor volume (cm^3)” value is reported as 1.10 cm^3 and the “Change in mean tumor volume (%)” value amounted to 51%. Further, in the test with NMU-2 mammary carcinoma (pellet, seven days), the “inhibition of tumor growth” value is recorded as 40-50%. Also, the half-inhibitory concentration (IC50) (commonly the midpoint of a concentration-inhibition curve) with HL-60 worked out at 10 µM. Moreover, the IC50 in the test on Molt-4 (read-out: Inhibition of Growth IC50, Molt-4) turned out to be 5 µM. Also, the IC50 in the test with K-562 was found to be 20 µM. This molecule also gave an IC50 with myc-K562 of 20 µM. Also, the “RI receptor protein level” value in test [5] is “markedly decreased”. For the same molecule, in [6], the “c-myc protein level” value is “marked reduction of c-myc protein level”. In addition, in [7] (densitometric tracings), the “decrease in the RI level” value is reported as 70-80% and the “increase in the ratio of RII to RI” value is reported as “two- to three-fold increase”. Besides, in [7], the “RI and RII receptor levels” value is on record as “the cAMP receptor protein with a molecular weight of 52,000 increased appreciably with concomitant decrease of the 48,000 RI receptor protein”. The half-inhibitory concentration (IC50) in test [8] lay within 5 to 20 µM.
For the molecule `CCCC(=O)Nc1ncnc2c1ncn2[C@@H]1O[C@@H]2COP(=O)(O)O[C@H]2[C@H]1OC(=O)CCC` [DBcAMP, N^6, O^2' -dibutyryl-cAMP, reference compound], the RII/RI stood at 0.19 in [1] and 0.07 in test [2]. Moreover, the “relative level of RI” value in test [1] was determined as 0.80 ± 0.10; in test [2], 1.0 ± 0.1. Besides, the “relative level of RII” value in [1] is on record as 0.15 ± 0.02; in test [2], 0.07 ± 0.01. Also, the “p21 (Relative Level)” value in test [3] amounted to 0.8 ± 0.1. For the same molecule, the “p21 level” value in test [3] is listed as “slight reduction in p21 level”. In addition, in test [4], the “tumor growth” value is “only arrests this tumor growth without producing regression”. For the same molecule, the “tumor response” value in the test on NMU-2 mammary carcinoma (Table 5) is given as “completely resistant”. In the test on NMU-2 mammary carcinoma, the “Change in mean tumor volume (cm^3)” value was determined as 2.15 cm^3. Besides, the “Change in mean tumor volume (%)” value in the test with NMU-2 mammary carcinoma came to 100%. Besides, the IC50 in the test with HL-60 is 500 µM; with Molt-4 (read-out: Inhibition of Growth IC50, Molt-4 (symbol)), over 1000 µM; in the test on K-562 it was 1000 µM; in the test with myc-K562 it was 1000 µM; in [8], 500 to 1000 µM. Further, the “50% growth inhibition” value in the test on Molt-4 (Molt-4) is “the 50% growth inhibition could not be obtained”. The “RI receptor protein level” value in test [5] is reported as “without appreciable change”. The “c-myc protein level” value in test [6] is “did not affect the c-myc protein level”. In addition, the “RI and RII receptor levels” value in [7] is “the RI and RII receptor levels remained unchanged; also recorded: did not appreciably affect the RI or RII receptor levels”.
